From patent US20260022142A1, “MACROCYCLIC IMMUNOMODULATORS” (Bristol-Myers Squibb Company, priority 2022, published 2026)
Bridge positions count the residues as written; N and C are the ends. Square brackets hold non-standard residues; d marks the D form. Peptide text beside a SMILES is read from it. * marks the point of attachment. ξ: configuration not given here. Phe(4-COOH) = N[C@@H](Cc1ccc(C(=O)O)cc1)C(=O)O; Bip = N[C@@H](Cc1ccc(-c2ccccc2)cc1)C(=O)O; Tyr(3-Me) = Cc1cc(C[C@H](N)C(=O)O)ccc1O; Phe(3-Me) = Cc1cccc(C[C@H](N)C(=O)O)c1; His(τ-Me) = Cn1cnc(C[C@H](N)C(=O)O)c1; ξBip = NC(Cc1ccc(-c2ccccc2)cc1)C(=O)O; Phe(2-Me) = Cc1ccccc1C[C@H](N)C(=O)O; Val(3-OH) = CC(C)(O)[C@H](N)C(=O)O; 4Pal = N[C@@H](Cc1ccncc1)C(=O)O; Cha = N[C@@H](CC1CCCCC1)C(=O)O; Cit = NC(=O)NCCC[C@H](N)C(=O)O; Thr(3ξ) = CC(O)[C@H](N)C(=O)O; 12Ado = NCCCCCCCCCCCC(=O)O; Carboxymethyl = O=C(O)C*; Orn = NCCC[C@H](N)C(=O)O; Aun = NCCCCCCCCCCC(=O)O; Dab = NCC[C@H](N)C(=O)O; Nva = CCC[C@H](N)C(=O)O; Dap = NC[C@H](N)C(=O)O; ξD = NC(CC(=O)O)C(=O)O; AEEA = NCCOCCOCC(=O)O; ξDab = NCCC(N)C(=O)O

What follows are compounds tested against T1, PD-1/PD-L1 interaction (PE-labeled human PD-L1-Ig binding to Jurkat cell line over-expressing human PD-1) (Homo sapiens, UniProt Q15116) (assay: Jurkat-PD-1 Cell Binding High-Content Screening Assay (CBA)). Details: Jurkat cell line over-expressing human PD-1; PE-labeled PD-L1-Ig 20 nM final; read-out: Jurkat hPD1-PDL1 IC50.
T1 construct: expressed in transfected cells; host or cells: Jurkat
Assay type: cell-based
Summary of the method: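 Binding of fluorescent PD-L1-Ig (phycoerythrin on Ig tag, 20 nM final, 1 h) measured by high-content imaging of fixed, Hoechst-counterstained Jurkat-hPD-1 cells. Compound added 2 h at 37° C beforehand, in DMEM with 10% fetal calf serum.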

T1 sequence (Q15116 25-288): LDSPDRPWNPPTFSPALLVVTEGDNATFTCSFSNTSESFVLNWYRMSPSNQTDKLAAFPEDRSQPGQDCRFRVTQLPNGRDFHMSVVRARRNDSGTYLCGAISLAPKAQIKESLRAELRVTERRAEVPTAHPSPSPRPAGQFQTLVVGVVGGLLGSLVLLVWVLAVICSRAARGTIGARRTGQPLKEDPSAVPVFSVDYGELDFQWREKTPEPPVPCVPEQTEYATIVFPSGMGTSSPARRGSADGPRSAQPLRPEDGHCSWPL

SMILES	IC50
Cc1cc(C[C@@H]2NC(=O)[C@H](CC(=O)O)NC(=O)[C@H](Cc3ccc(OCC(=O)O)cc3)NC(=O)[C@H](CN)NC(=O)CSC[C@@H](C(=O)N[C@@H](CCN)C(=O)NCCCCCCCCCCC(=O)O)NC(=O)[C@H]([C@@H](C)O)NC(=O)[C@H](C(C)C)NC(=O)[C@H](CC3CCCCC3)NC(=O)[C@H](CCN)NC(=O)[C@@H](CC(C)C)NC(=O)[C@H](CCCN)NC(=O)[C@H](Cc3ccc(OCC(=O)O)cc3)NC(=O)[C@H](Cc3ccc(-c4ccccc4)cc3)NC(=O)[C@H](Cc3ccc(O)cc3)NC2=O)ccc1O [Compound 2108] ({CH2CO}-[Dap]Y(Carboxymethyl)D[Tyr(3-Me)]Y[Bip]Y(Carboxymethyl)[Orn][dL][Dab][Cha]VTC[Dab][Aun]-OH; thioether N-14)	21 nM
Cc1cccc(C[C@@H]2NC(=O)[C@H](CC(=O)O)NC(=O)[C@H](Cc3ccc(OCC(=O)O)cc3)NC(=O)[C@H](Cc3cn(C)cn3)NC(=O)CSC[C@@H](C(=O)N[C@@H](CCN)C(=O)NCCCCCCCCCCC(=O)O)NC(=O)[C@H](CCC(N)=O)NC(=O)[C@H](C(C)(C)O)NC(=O)[C@H](CC3CCCCC3)NC(=O)[C@H](CCN)NC(=O)[C@@H](CC(C)C)NC(=O)[C@H](CCCN)NC(=O)[C@H](Cc3ccc(OCC(=O)O)cc3)NC(=O)[C@H](Cc3ccc(-c4ccccc4)cc3)NC(=O)[C@H](Cc3ccc(OCC(=O)O)cc3)NC2=O)c1 [Compound 2155] ({CH2CO}-[His(τ-Me)]Y(Carboxymethyl)D[Phe(3-Me)]Y(Carboxymethyl)[Bip]Y(Carboxymethyl)[Orn][dL][Dab][Cha][Val(3-OH)]QC[Dab][Aun]-OH; thioether N-14)	19.4 nM
Cc1cccc(C[C@@H]2NC(=O)C(CC(=O)O)NC(=O)[C@H](Cc3ccc(OCC(=O)O)cc3)NC(=O)[C@H](CN)NC(=O)CSC[C@@H](C(=O)NCCOCCOCC(=O)N[C@@H](CCN)C(=O)NCCCCCCCCCCC(=O)O)NC(=O)[C@H]([C@@H](C)O)NC(=O)[C@H](C(C)C)NC(=O)[C@H](CC3CCCCC3)NC(=O)[C@H](CCN)NC(=O)[C@@H](CC(C)C)NC(=O)[C@H](CCCN)NC(=O)[C@H](CCCNC(N)=O)NC(=O)C(Cc3ccc(-c4ccccc4)cc3)NC(=O)[C@H](C(C)C)NC2=O)c1 (stereo partly drawn) [Compound 1177] ({CH2CO}-[Dap]Y(Carboxymethyl)[ξD][Phe(3-Me)]V[ξBip][Cit][Orn][dL][Dab][Cha]VTC[AEEA][Dab][Aun]-OH; thioether N-14)	8.3 nM
Cc1cccc(C[C@@H]2NC(=O)[C@H](CC(=O)O)NC(=O)[C@H](Cc3ccc(OCC(=O)O)cc3)NC(=O)[C@H](Cc3ccncc3)NC(=O)CSC[C@@H](C(=O)N[C@@H](CCN)C(=O)NCCOCCOCC(=O)NCCCCCCCCCCC(=O)O)NC(=O)[C@H](CCC(=O)O)NC(=O)[C@H](C(C)(C)O)NC(=O)[C@H](CC3CCCCC3)NC(=O)[C@H](CCN)NC(=O)[C@@H](CC(C)C)NC(=O)[C@H](CCCN)NC(=O)[C@H](Cc3ccc(C(=O)O)cc3)NC(=O)[C@H](Cc3ccc(-c4ccccc4)cc3)NC(=O)[C@H](Cc3ccc(C(=O)O)cc3)NC2=O)c1 [Compound 3744] ({CH2CO}-[4Pal]Y(Carboxymethyl)D[Phe(3-Me)][Phe(4-COOH)][Bip][Phe(4-COOH)][Orn][dL][Dab][Cha][Val(3-OH)]EC[Dab][AEEA][Aun]-OH; thioether N-14)	16.6 nM
Cc1cccc(C[C@@H]2NC(=O)[C@H](CC(=O)O)NC(=O)[C@H](Cc3ccc(OCC(=O)O)cc3)NC(=O)[C@H](C(C)O)NC(=O)CSC[C@@H](C(=O)NC(CCN)C(=O)NCCCCCCCCCCCC(=O)O)NC(=O)[C@H](C(C)O)NC(=O)[C@H](C(C)C)NC(=O)[C@H](CC3CCCCC3)NC(=O)[C@H](CCN)NC(=O)[C@@H](CC(C)C)NC(=O)[C@H](CCCN)NC(=O)[C@H](CCCNC(N)=O)NC(=O)[C@H](Cc3ccc(-c4ccccc4)cc3)NC(=O)[C@H](C(C)C)NC2=O)c1 (stereo partly drawn) [Compound 3504] ({CH2CO}-[Thr(3ξ)]Y(Carboxymethyl)D[Phe(3-Me)]V[Bip][Cit][Orn][dL][Dab][Cha]V[Thr(3ξ)]C[ξDab][12Ado]-OH; thioether N-14)	26.2 nM
CC(C)C[C@H]1NC(=O)[C@H](CCN)NC(=O)[C@H](Cc2ccc(O)cc2)NC(=O)[C@H](Cc2ccc(-c3ccccc3)cc2)NC(=O)[C@H](C(C)C)NC(=O)[C@H](Cc2c[nH]c3ccccc23)NC(=O)[C@H](CC(=O)O)NC(=O)[C@H](Cc2ccc(OCC(=O)O)cc2)NC(=O)[C@H](CCCNC(=N)N)NC(=O)CSC[C@@H](C(=O)N[C@@H](CCCN)C(=O)NCCCCCCCCCCC(=O)O)NC(=O)[C@@H](CCC(N)=O)NC(=O)[C@H](C(C)C)NC(=O)[C@H](CC2CCCCC2)NC(=O)[C@H](CCN)NC1=O [Compound 2817] ({CH2CO}-RY(Carboxymethyl)DWV[Bip]Y[Dab][dL][Dab][Cha]V[dQ]C[Orn][Aun]-OH; thioether N-14)	47.1 nM

Next, values leading:

IC50	SMILES
7.6 nM	CC(C)C[C@H]1NC(=O)[C@H](CCCN)NC(=O)[C@H](C(C)C)NC(=O)[C@H](Cc2ccc(-c3ccccc3)cc2)NC(=O)[C@H](C(C)C)NC(=O)[C@H](Cc2c[nH]c3ccccc23)NC(=O)[C@H](CC(=O)O)NC(=O)[C@H](Cc2ccc(OCC(=O)O)cc2)NC(=O)[C@H](CN)NC(=O)CSC[C@@H](C(=O)NCCOCCOCC(=O)N[C@@H](CCN)C(=O)NCCCCCCCCCCC(=O)O)NC(=O)[C@H](CCCCN)NC(=O)[C@H](C(C)C)NC(=O)[C@H](CC2CCCCC2)NC(=O)[C@H](CCN)NC1=O [Compound 2541] ({CH2CO}-[Dap]Y(Carboxymethyl)DWV[Bip]V[Orn][dL][Dab][Cha]VKC[AEEA][Dab][Aun]-OH; thioether N-14)
11.8 nM	Cc1cccc(C[C@@H]2NC(=O)[C@H](CC(=O)O)NC(=O)[C@H](Cc3ccc(OCC(=O)O)cc3)NC(=O)[C@H](CN)NC(=O)CSC[C@@H](C(=O)N[C@@H](CCN)C(=O)NCCOCCOCC(=O)NCCCCCCCCCCC(=O)O)NC(=O)[C@H](C(C)O)NC(=O)[C@H](C(C)C)NC(=O)[C@H](CC3CCCCC3)NC(=O)[C@H](CCN)NC(=O)[C@@H](CC(C)C)NC(=O)[C@H](CCCN)NC(=O)[C@H](CCCNC(N)=O)NC(=O)[C@H](Cc3ccc(-c4ccccc4)cc3)NC(=O)[C@H](Cc3ccc(O)cc3)NC2=O)c1 (stereo partly drawn) [Compound 2579] ({CH2CO}-[Dap]Y(Carboxymethyl)D[Phe(3-Me)]Y[Bip][Cit][Orn][dL][Dab][Cha]V[Thr(3ξ)]C[Dab][AEEA][Aun]-OH; thioether N-14)
27.8 nM	Cc1cccc(C[C@@H]2NC(=O)[C@H](CC(=O)O)NC(=O)[C@H](Cc3ccc(OCC(=O)O)cc3)NC(=O)[C@H](CN)NC(=O)CSC[C@@H](C(=O)N[C@@H](CCCN)C(=O)N[C@@H](CO)C(=O)NCCCCCCCCCCCC(=O)O)NC(=O)[C@H](CCCN)NC(=O)[C@H](C(C)C)NC(=O)[C@H](CC3CCCCC3)NC(=O)[C@H](CCN)NC(=O)[C@@H](CC(C)C)NC(=O)[C@H](CCCN)NC(=O)[C@H](Cc3ccc(O)cc3)NC(=O)[C@H](Cc3ccc(-c4ccccc4)cc3)NC(=O)[C@H](C(C)C)NC2=O)c1 [Compound 3589] ({CH2CO}-[Dap]Y(Carboxymethyl)D[Phe(3-Me)]V[Bip]Y[Orn][dL][Dab][Cha]V[Orn]C[Orn]S[12Ado]-OH; thioether N-14)
21.7 nM	Cc1cccc(C[C@@H]2NC(=O)[C@H](CC(=O)O)NC(=O)[C@H](Cc3ccc(OCC(=O)O)cc3)NC(=O)[C@H](Cc3ccncc3)NC(=O)CSC[C@@H](C(=O)N[C@@H](CCN)C(=O)NCCCCCCCCCCC(=O)O)NC(=O)[C@H](CO)NC(=O)[C@H](C(C)(C)O)NC(=O)[C@H](CC3CCCCC3)NC(=O)[C@H](CCN)NC(=O)[C@@H](CC(C)C)NC(=O)[C@H](CCCN)NC(=O)[C@H](Cc3ccc(OCC(=O)O)cc3)NC(=O)[C@H](Cc3ccc(-c4ccccc4)cc3)NC(=O)[C@H](Cc3ccccc3C)NC2=O)c1 [Compound 2193] ({CH2CO}-[4Pal]Y(Carboxymethyl)D[Phe(3-Me)][Phe(2-Me)][Bip]Y(Carboxymethyl)[Orn][dL][Dab][Cha][Val(3-OH)]SC[Dab][Aun]-OH; thioether N-14)
363 nM	Cc1cccc(C[C@@H]2NC(=O)[C@H](CC(=O)O)NC(=O)[C@H](Cc3ccc(OCC(=O)O)cc3)NC(=O)[C@H](CN)NC(=O)CSC[C@@H](C(=O)N[C@@H](CCN)C(=O)NCCCCCCCCCCC(=O)O)NC(=O)[C@H](C(C)O)NC(=O)[C@H](C(C)C)NC(=O)[C@H](CC3CCCCC3)NC(=O)[C@H](CCN)NC(=O)[C@@H](CC(C)C)NC(=O)[C@H](CCCN)NC(=O)[C@H](CCCNC(N)=O)NC(=O)[C@H](Cc3ccc(-c4ccccc4)cc3)NC(=O)[C@H](CCCNC(N)=O)NC2=O)c1 (stereo partly drawn) [Compound 3593] ({CH2CO}-[Dap]Y(Carboxymethyl)D[Phe(3-Me)][Cit][Bip][Cit][Orn][dL][Dab][Cha]V[Thr(3ξ)]C[Dab][Aun]-OH; thioether N-14)
55.6 nM	CC(C)C[C@H]1NC(=O)[C@H](CCCN)NC(=O)[C@H](C(C)C)NC(=O)[C@H](Cc2ccc(-c3ccccc3)cc2)NC(=O)[C@H](C(C)C)NC(=O)[C@H](Cc2c[nH]c3ccccc23)NC(=O)[C@H](CC(=O)O)NC(=O)[C@H](Cc2ccc(OCC(=O)O)cc2)NC(=O)[C@H](CN)NC(=O)CSC[C@@H](C(=O)N[C@@H](CCC(=O)O)C(=O)NCCCCCCCCCCC(=O)O)NC(=O)[C@H]([C@@H](C)O)NC(=O)[C@H](C(C)C)NC(=O)[C@H](CC2CCCCC2)NC(=O)[C@H](Cc2c[nH]cn2)NC1=O [Compound 1079] ({CH2CO}-[Dap]Y(Carboxymethyl)DWV[Bip]V[Orn][dL]H[Cha]VTCE[Aun]-OH; thioether N-14)
153 nM	CCC[C@@H]1NC(=O)[C@H](CCN)NC(=O)[C@@H](CC(C)C)NC(=O)[C@H](CCCN)NC(=O)[C@H](Cc2ccc(OCC(=O)O)cc2)NC(=O)[C@H](Cc2ccc(-c3ccccc3)cc2)NC(=O)[C@H](Cc2ccc(OCC(=O)O)cc2)NC(=O)[C@H](Cc2cccc(C)c2)NC(=O)[C@H](CC(=O)O)NC(=O)[C@H](Cc2ccc(OCC(=O)O)cc2)NC(=O)[C@H](CN)NC(=O)CSC[C@@H](C(=O)N[C@@H](CCN)C(=O)NCCOCCOCC(=O)NCCCCCCCCCCC(=O)O)NC(=O)[C@H](CCC(=O)O)NC(=O)[C@H](C(C)C)NC1=O [Compound 1259] ({CH2CO}-[Dap]Y(Carboxymethyl)D[Phe(3-Me)]Y(Carboxymethyl)[Bip]Y(Carboxymethyl)[Orn][dL][Dab][Nva]VEC[Dab][AEEA][Aun]-OH; thioether N-14)
